For nine compounds, IC50 results are on record in patent publication US20240199702A1, “CELL-PERMEABLE CYCLIC PEPTIDES AND USES THEREOF” (Unnatural Products Inc., priority 2021, published 2024).

The target in one assay is T1, Human MDM4 (HDM4) 1-114 (Homo sapiens, UniProt O15151).
T1 construct: Human MDM4 (HDM4) 1-114
T1 sequence (O15151 1-114): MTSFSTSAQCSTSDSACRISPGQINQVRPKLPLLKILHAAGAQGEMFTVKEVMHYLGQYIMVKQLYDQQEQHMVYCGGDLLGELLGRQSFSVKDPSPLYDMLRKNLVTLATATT
Kind of assay: Fluorescence Polarization Assay 2 (MDM4/p53 peptide). The conditions noted are these: FAM-labeled p53 peptide, 60 minutes. The assay is classed as binding. On the procedure:
Fluorescence Polarization Assay 2
(§1) Human MDM4 (HDM4) 1-114 (20 μL) and FAM-labeled GGTSFAEYWNLLSP —NH2, 20 nM and 5 nM respectively in 10 mM Tris, 50 mM NaCl, 0.01% Tween20, and 1 mM DTT at pH 7.4 were dispensed into an opaque, black, 384 well plate. Compounds dissolved in DMSO were pin transferred (−100-200 nL) to the 384 well plate containing the MDM4/p53 solution. After incubation for 60 minutes, the fluorescence polarization was read on a Molecular Devices SpectraMax plate reader equipped with a Fluorescein FP cartridge. In addition to probe alone (positive control) and probe/MDM4 (negative control), a titration of linear p53(18-26) was included on every plate as an additional control. IC50 values were fit using either Prism or Collaborative Drug Discovery.
On the technique in general: In fluorescence polarisation assays a small probe gives low polarisation when free and higher when bound to something large.

In the next assay the test system is MV4-11 cells. Kind of assay: Cellular Fluorescence Assay 2 (CellTiter-Glo, 72 hours). In kind it is cell-based. How it is done: Cellular Fluorescence Assay 2
(§2) MV4-11 cells were grown in suspension in T75 flasks in RPMI medium with 10% fetal bovine serum (FBS) at 37° C. with 5% CO2. 40 μL of MV4-11 cells were plated into columns 1-22 of white, flat bottom, 384 well plates at a density of 1,000 cells per well in RPMI with 10% FBS. Columns 23 and 24 were filled with 40 μL of media as a positive control. 100 nL of compounds dissolved in DMSO were pin transferred into columns 3-22 of the 384 well plate. Columns 1 and 2 served as negative control wells. Plates were incubated for 72 hours at 37° C. with 5% CO2. After incubation, the cells were given 10 μL of CellTiter-Glo® (Promega®). Luminescence was read on a Molecular Devices SpectraMax i3x plate reader.
On the technique in general: Cellular ATP, detected with luciferase, serves as a proxy for viable cell number.

The test system of another assay is MKL-1 cells. Kind of assay: Cellular Fluorescence Assay 4 (CellTiter-Glo, 72 hours). The assay is classed as cell-based. How it is done:
Cellular Fluorescence Assay 4
as §2, with “MKL-1” for “MV4-11”, “MKL-1” for “of MV4-11”, “reader. In some embodiments, the cyclic peptide described herein is a cyclic peptide depicted in Table 1: […]” for “reader.”

For the next assay, the system named is MOLM-13 cells. Kind of assay: Cellular Fluorescence Assay 1 (CellTiter-Glo, 72 hours). In kind it is cell-based. On the procedure: Cellular Fluorescence Assay 1
as §2, with “MOLM-13” for “MV4-11”, “ofMOLM-13” for “of MV4-11”

Another assay concerns WaGa cells. Kind of assay: Cellular Fluorescence Assay 3 (CellTiter-Glo, 72 hours). The assay is classed as cell-based. On the procedure: Cellular Fluorescence Assay 3
as §2, with “WaGa” for “MV4-11”

For another assay, the target named is T2, Human MDM2 (HDM2) 1-116 (Homo sapiens, UniProt Q00987).
T2 construct: Human MDM2 (HDM2) 1-116
T2 sequence (Q00987 1-116): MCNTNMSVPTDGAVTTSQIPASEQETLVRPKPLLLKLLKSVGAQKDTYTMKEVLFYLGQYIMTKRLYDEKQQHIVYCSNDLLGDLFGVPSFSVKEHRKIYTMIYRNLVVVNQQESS
As to the kind of experiment: Fluorescence Polarization Assay 1 (MDM2/p53 peptide). The conditions noted are these: FAM-labeled p53 peptide, 60 minutes. In kind it is binding. On the procedure: Fluorescence Polarization Assay 1
as §1, with “MDM2 (HDM2) 1-116” for “MDM4 (HDM4) 1-114”, “GGTSFAEYWNLLSP-NH2, 10” for “GGTSFAEYWNLLSP —NH2, 20”, “(˜100-200” for “(−100-200”, “MDM2/p53” for “MDM4/p53”, “probe/MDM2” for “probe/MDM4”

*1 amine or outer side, *2 acyl side, *3 side chain or, on linkers, in order; H or OH if unused. Where a SMILES comes first, the peptide text is derived from it. [ ]: non-standard residue; d: D form. The star is where a group is joined. ξ: configuration not given here. Ala(thiazol-5-yl) = N[C@@H](Cc1cncs1)C(=O)O; Ala(4-thiazolyl) = N[C@@H](Cc1cscn1)C(=O)O; NMePhe(4-F) = CN[C@@H](Cc1ccc(F)cc1)C(=O)O; Phe(4-Cl) = N[C@@H](Cc1ccc(Cl)cc1)C(=O)O; Phe(4-F) = N[C@@H](Cc1ccc(F)cc1)C(=O)O; X2 = CC1(C)CN([*:1])[C@@H]1C(=O)[*:2]; NMeF = CN[C@@H](Cc1ccccc1)C(=O)O; NMeT = CN[C@H](C(=O)O)[C@@H](C)O; NMeV = CN[C@H](C(=O)O)C(C)C; hSer = N[C@@H](CCO)C(=O)O; NMeA = CN[C@@H](C)C(=O)O; dNMeA = CN[C@H](C)C(=O)O; ξNMeV = CNC(C(=O)O)C(C)C; Aze = O=C(O)[C@@H]1CCN1; NBuGly = CCCCNCC(=O)O; Butyryl = CCCC(=O)*; Nme = COCCNCC(=O)O; NEtG = CCNCC(=O)O; Sar = CNCC(=O)O Bounds are passed on as bounds.

On to `CCCC(=O)O[C@H](C)[C@@H]1NC(=O)[C@H](Cc2ccc(F)cc2)NC(=O)CN(CCOC)C(=O)[C@@H](C)N(C)C(=O)[C@H](Cc2cscn2)NC(=O)[C@H](C)N(C)C(=O)[C@H](CCOC)NC(=O)[C@H]2CCCN2C(=O)[C@H](Cc2ccccc2)N(C)C(=O)[C@H](Cc2ccc(Cl)cc2)NC1=O` [compound 6] (cyclo([Ala(4-thiazolyl)][dNMeA][Nme][Phe(4-F)]T(Butyryl)[Phe(4-Cl)][NMeF][dP][hSer](Me)[NMeA])), for which the IC50 against Human MDM4 (HDM4) 1-114 was 50 to 100 nM; in the assay on MV4-11 cells, under 50 nM; in the assay on MKL-1 cells it was under 500 nM; in the assay on MOLM-13 cells it was 50 to 100 nM; in the assay on WaGa cells it was under 50 nM; against Human MDM2 (HDM2) 1-116, 25 to 50 nM.

Consider `COCC[C@@H]1NC(=O)[C@H]2CCCN2C(=O)[C@H](Cc2ccc(F)cc2)N(C)C(=O)[C@H](Cc2ccc(Cl)cc2)NC(=O)[C@H]2N(CC2(C)C)C(=O)[C@H](Cc2ccc(F)cc2)NC(=O)CN(CCOC)C(=O)[C@@H](C)N(C)C(=O)[C@H](Cc2cscn2)NC(=O)[C@H](C)N(C)C1=O` [compound 11] (cyclo([Ala(4-thiazolyl)][dNMeA][Nme][Phe(4-F)][X2][Phe(4-Cl)][NMePhe(4-F)][dP][hSer](Me)[NMeA])), for which the IC50 on Human MDM4 (HDM4) 1-114 is under 25 nM; in the assay with MV4-11 cells, 100 to 150 nM; in the assay on MOLM-13 cells, at least 150 nM; at Human MDM2 (HDM2) 1-116, under 25 nM.

`COCC[C@@H]1NC(=O)[C@H]2CCCN2C(=O)[C@H](Cc2ccccc2)N(C)C(=O)[C@H](Cc2ccc(Cl)cc2)NC(=O)[C@H]([C@@H](C)O)N(C)C(=O)[C@H](Cc2ccc(F)cc2)NC(=O)CN(CCOC)C(=O)[C@@H](C)N(C)C(=O)[C@H](Cc2cscn2)NC(=O)[C@H](C)N(C)C1=O` [compound 19] (cyclo([Ala(4-thiazolyl)][dNMeA][Nme][Phe(4-F)][NMeT][Phe(4-Cl)][NMeF][dP][hSer](Me)[NMeA])): the IC50 is 50 to 100 nM at Human MDM4 (HDM4) 1-114 and under 25 nM on Human MDM2 (HDM2) 1-116.

As for `COCC[C@@H]1NC(=O)[C@H]2CCCN2C(=O)[C@H](Cc2ccccc2)N(C)C(=O)[C@H](Cc2ccc(Cl)cc2)NC(=O)[C@H]([C@@H](C)OC)N(C)C(=O)[C@H](Cc2ccc(F)cc2)NC(=O)CN(CCOC)C(=O)[C@@H](C)N(C)C(=O)[C@H](Cc2cscn2)NC(=O)[C@H](C)N(C)C1=O` [compound 20] (cyclo([Ala(4-thiazolyl)][dNMeA][Nme][Phe(4-F)][NMeT](Me)[Phe(4-Cl)][NMeF][dP][hSer](Me)[NMeA])), the IC50 at Human MDM4 (HDM4) 1-114 was 50 to 100 nM; against Human MDM2 (HDM2) 1-116 it was under 25 nM.

As for `COCC[C@@H]1NC(=O)[C@H]2CCCN2C(=O)[C@H](Cc2ccc(F)cc2)N(C)C(=O)[C@H](Cc2ccc(Cl)cc2)NC(=O)[C@@H]2CCN2C(=O)[C@H](Cc2ccc(F)cc2)NC(=O)CN(CCOC)C(=O)[C@@H](C)N(C)C(=O)[C@H](Cc2cscn2)NC(=O)[C@@H]2CCCN2C1=O` [compound 21] (cyclo([Ala(4-thiazolyl)][dNMeA][Nme][Phe(4-F)][Aze][Phe(4-Cl)][NMePhe(4-F)][dP][hSer](Me)P)), the IC50 at Human MDM4 (HDM4) 1-114 was 50 to 100 nM; in the assay on MV4-11 cells, at least 150 nM; in the assay with MKL-1 cells, 1000 to 2000 nM; with MOLM-13 cells, at least 150 nM; in the assay with WaGa cells, at least 150 nM; on Human MDM2 (HDM2) 1-116, 50 to 100 nM.

On to `COCC[C@@H]1NC(=O)[C@H]2CCCN2C(=O)[C@H](Cc2ccc(F)cc2)N(C)C(=O)[C@H](Cc2ccc(Cl)cc2)NC(=O)[C@@H]2CCN2C(=O)[C@H](Cc2ccc(F)cc2)NC(=O)CN(CCOC)C(=O)[C@@H](C)N(C)C(=O)[C@H](Cc2cscn2)NC(=O)[C@H](C(C)C)N(C)C1=O` [compound 22] (cyclo([Ala(4-thiazolyl)][dNMeA][Nme][Phe(4-F)][Aze][Phe(4-Cl)][NMePhe(4-F)][dP][hSer](Me)[NMeV])), for which the IC50 was 25 to 50 nM against Human MDM4 (HDM4) 1-114; 50 to 100 nM with MV4-11 cells; under 500 nM in the assay with MKL-1 cells; at least 150 nM with MOLM-13 cells; 50 to 100 nM with WaGa cells; 25 to 50 nM against Human MDM2 (HDM2) 1-116.

For the compound `COCC[C@@H]1NC(=O)[C@H]2CCCN2C(=O)[C@H](Cc2ccc(F)cc2)N(C)C(=O)[C@H](Cc2ccc(Cl)cc2)NC(=O)[C@@H]2CCN2C(=O)[C@H](Cc2ccc(F)cc2)NC(=O)CN(CCOC)C(=O)[C@@H](C)N(C)C(=O)[C@H](Cc2cscn2)NC(=O)CN(C)C1=O` [compound 23] (cyclo([Ala(4-thiazolyl)][dNMeA][Nme][Phe(4-F)][Aze][Phe(4-Cl)][NMePhe(4-F)][dP][hSer](Me)[Sar])), the half-maximal inhibitory concentration (IC50) at Human MDM4 (HDM4) 1-114 was 50 to 100 nM; in the assay on MV4-11 cells, at least 150 nM; with MKL-1 cells it was at least 2000 nM; with MOLM-13 cells it was at least 150 nM; with WaGa cells it was at least 150 nM; on Human MDM2 (HDM2) 1-116 it was 50 to 100 nM.

Regarding `CCCCN1CC(=O)N[C@@H](Cc2ccc(F)cc2)C(=O)N(C)C(C(C)C)C(=O)N[C@@H](Cc2ccc(Cl)cc2)C(=O)N(C)[C@@H](Cc2ccccc2)C(=O)N2CCC[C@@H]2C(=O)N[C@@H](CCOC)C(=O)N(C)[C@@H](C)C(=O)N[C@@H](Cc2cncs2)C(=O)N(C)[C@H](C)C1=O` (some centres unmarked) [compound 24] (cyclo([NMeA][Ala(thiazol-5-yl)][dNMeA][NBuGly][Phe(4-F)][ξNMeV][Phe(4-Cl)][NMeF][dP][hSer](Me))), the IC50 against Human MDM4 (HDM4) 1-114 was at least 100 nM; with MV4-11 cells it was at least 150 nM; in the assay on MKL-1 cells it was at least 2000 nM; in the assay with MOLM-13 cells, at least 150 nM; with WaGa cells, at least 150 nM; against Human MDM2 (HDM2) 1-116, 25 to 50 nM.

`CCN1CC(=O)N[C@@H](Cc2ccc(F)cc2)C(=O)N(C)[C@@H](C(C)C)C(=O)N[C@@H](Cc2ccc(Cl)cc2)C(=O)N(C)[C@@H](Cc2ccccc2)C(=O)N2CCC[C@@H]2C(=O)N[C@@H](CCOC)C(=O)N(C)[C@@H](C)C(=O)N[C@@H](Cc2cncs2)C(=O)N(C)[C@H](C)C1=O` [compound 25] (cyclo([NEtG][Phe(4-F)][NMeV][Phe(4-Cl)][NMeF][dP][hSer](Me)[NMeA][Ala(thiazol-5-yl)][dNMeA])): the IC50 is at least 100 nM against Human MDM4 (HDM4) 1-114; 100 to 150 nM in the assay on MV4-11 cells; 500 to 1000 nM in the assay with MKL-1 cells; at least 150 nM with MOLM-13 cells; at least 150 nM with WaGa cells; under 25 nM on Human MDM2 (HDM2) 1-116.

Broadly, the IC50 is the concentration at which inhibition is half-maximal.
